# Experimental data published in US20230048678A1, “ICAN DERIVATIVES FOR ANTIFUNGAL USE” (DEBRECENI EGYETEM, priority 2019, published 2023).
# Where “and” joins values, the source holds several entries; their conditions need not be identical. Equal values may be shown once. Entries after “also recorded” stand apart in the source; their conditions may differ.
# Tests used:
# [1] = tested on: C. albicans SC5314, C. krusei ATCC 6258 and C. parapsilosis ATCC 22019; test: CLSI broth microdilution, MIC summarised over the three Candida test strains; assay type: cell-based; details: value or range over the three Candida strains of Table 1, total inhibition
# Experimental: ICAN has 3 key moieties, namely the amino, naphthalene and isonitrile. To find out which ones of them are essential for the antifungal behavior and to design more efficient derivatives, comparative studies were carried out, where one of the moieties was exchanged or eliminated. All ICAN derivatives were tested against C. albicans SC5314, C. krusei ATCC 6258 and C. parapsilosis ATCC 22019. The antifungal agents were dissolved in 100% DMSO and diluted further in RPMI-1640 (with L-glutamine but without bicarbonate) and buffered to pH 7.0 with 0.165 M morpholinopropanesulfonic acid (MOPS). MICs were read visually after 48-h incubation at 35° C. using the partial (50%) inhibition (for ICAN derivatives) (PI) and total inhibition (for AMB and ICAN derivatives) (TI) criteria. MICs were determined at least twice.
# The tested C. albicans, C. tropicalis, C. parapsilosis, C. glabrata and C. krusei ATCC strains and clinical isolates are listed in Table 2. MICs were determined according to the CLSI M27-A3 [22]. Antifungal agents were dissolved in 100% DMSO and diluted further in RPMI-1640 (with L-glutamine but without bicarbonate) (Sigma, Budapest, Hungary), and buffered to pH 7.0 with 0.165 M morpholinopropanesulfonic acid (MOPS; Sigma, Budapest, Hungary). The final concentration ranges used for AMB and ICAN derivatives were 0.125 to 4 μg/ml and 0.04 to 20 μg/ml, respectively. Yeast cell suspensions were prepared in RPMI 1640 medium and were adjusted to give a final inoculum concentration of 0.5×10^3 to 2.5×10^3 cells/ml. MICs were read visually after 48-h incubation at 35° C. using the partial (50%) inhibition (for ICAN derivatives) (PI) and total inhibition (for AMB and ICAN derivatives) (TI) criteria. MICs were determined at least twice. For amphotericin B isolates with MIC values of ≤2 mg/L were considered wild-types. [Pfaller M A, 2012]
# human cell cultures [2] = test: MTT bio assay cytotoxicity; assay type: cell-based; details: MTT bio assay technique
# C. albicans isolate 3666 [3] = test: Murine model of acute invasive candidiasis, survival; assay type: in vivo, BALB/c mice; details: neutropenic mice, 3×10^4 cfu/mouse iv, 5 mg/kg ip once daily for 5 days, olive oil/water emulsion; untreated controls 0%, P<0.05
# Experimental: In the model of acute invasive candidiasis, neutropenic mice were infected via the lateral tail vein with C. albicans isolate 3666 (3×10^4 cfu/mouse) to establish an acute infection. It is well understood that any other fungal pathogens of animals can be used for this purpose. In the example provided herein all untreated control animals died within 6 days. DIMICAN (5 mg/kg) prolonged the survival period of animals compared to non-treated infected controls (P<0.05; 80 versus 0% survivors at day 7 post-infection; FIG. 3a). It should be noted, however, that DIMICAN was administered as intraperitoneal injection which contained DIMICAN as an emulsion in reagent grade olive oil and water. While emulsions are a kind of preferred options in the preparations of the invention, preparing alternative or improved formulations are within the skills of a person skilled in the art.
# We used 10-12 week-old female BALB/c mice for all experiments. […] Mice were given food and water ad libitum and were monitored daily. […]
# (§1) Survival effects were analyzed by the Kaplan—Meier log-rank test. Kidney burden was analysed using a Kruskal—Wallis test with Dunn's posttest for multiple comparisons [Foldi R 2012, Kovacs R 2014].
# C. albicans isolate 3666 [4] = test: Murine model, kidney fungal burden; assay type: in vivo, BALB/c mice; details: immunosuppressed mice, 10^4 cfu/mouse iv
# Experimental: During an independent in vivo experiment mice were infected intravenously with C. albicans isolate 3666. The infected mice were euthanized 2 or 6 days after infection (n=5 and 6 mice/time point, respectively), as disclosed herein, to determine the fungal burdens in the kidneys. Kidney burden was analyzed using a Kruskal-Wallis test with Dunn's posttest for multiple comparisons [Foldi R 2012, Kovacs R 2014]. Results of fungal burden experiments are shown on FIGS. 3b and c. […] It is well seen in […], that on day 6. the fungal burden increased by an order of magnitude (from −10^5 to −10^6) in the case of the untreated mice, while in the case of DIMICAN it remained the same as it was on day 2. The same is valid for AMB.
# We used 10-12 week-old female BALB/c mice for all experiments. Mice were immunosuppressed using 150 mg/kg intraperitoneal (ip) cyclophosphamide dose (4 days prior to infection) and 100 mg/kg ip cyclophosphamide dose (1 day prior to infection; 2 and 5 days after infection) [Spellberg B, 2005]. All mice received ceftazidime (5 mg/day subcutaneously) from days 0 to 6 after infection. Mice were given food and water ad libitum and were monitored daily. The animals were maintained in accordance with the Guidelines for the Care and Use of Laboratory Animals, and the experiments were approved by the Animal Care Committee of the University of Debrecen, Debrecen, Hungary (permission no. 12/2014).
# Mice were infected via the lateral tail vein with C. albicans 3666 bloodstream isolate. In the lethality (10 mice/group) and fungal tissue burden experiments (6 mice/group) the infectious doses were 3×10^4 and 10^4 cfu/mouse, respectively. These doses led to 100% and 0% mortality, respectively by day 6 after infection among untreated mice. Inoculum density was confirmed by plating serial dilutions onto Sabouraud dextrose agar (SDA) plates.
# AMB (Fungizone, commercial preparation) and DIMICAN treatment in a 0.5-ml bolus was started 1 h after infection. The doses were 1 mg AMB and 5 mg DIMICAN (in olive oil/water (o/w) emulsion) per kg body weight. All antifungals were administered intraperitoneally once daily for 5 consecutive days.
# Infected mice were euthanized 2 or 6 days after infection (n=6 mice/time point) to determine the fungal burden in the kidney. […] Aliquots of 0.1 ml of the undiluted and diluted homogenates were plated onto SDA, and the colony count was determined after 48 h. Colony-forming units (CFUs) were determined after 48 h of incubation at 37° C. and results were expressed as cfus/g tissue [Spellberg B, 2005]. […]
# as §1
# human cell cultures [5] = details: from [Nagy M 2018, Nagy Z L; cited from earlier work
compound,measurement,setting,value
"[C-]#[N+]c1cccc2c(N(C)C)cccc12 [DIMICAN, N,N-dimethyl-1-amino-5-isocyanonaphthalene]",MICTI,[1],0.6 µg/mL and 0.3 to 0.6 µg/mL
same,LD50,human cell cultures [2],13 µg/mL
same,survivors at day 7 post infection,C. albicans isolate 3666 [3],80%
same,"effect on kidney fungal burden, six days after infection","C. albicans isolate 3666 [4]; 5 mg/kg DIMICAN or 1 mg/kg AMB ip once daily for 5 days, p<0.05 (AMB), p<0.001 (DIMICAN) vs control",efficient; also recorded: significantly lower fungal burden
same,"effect on kidney fungal burden, two days after infection","C. albicans isolate 3666 [4]; 5 mg/kg DIMICAN or 1 mg/kg AMB ip once daily, P>0.05 vs control",no effect on fungal load
same,cytotoxic effect,human cell cultures [5],no cytotoxic effect
